Results taken from US20230390269A1, “METHOD OF TREATMENT WITH TRADIPITANT” (Vanda Pharmaceuticals Inc., priority 2017, published 2023).
Each block holds one molecule with its values, some of them ahead of it. Bridge positions count the residues as written; N and C are the ends. Square brackets hold non-standard residues; d marks the D form. Peptide text beside a SMILES is read from it. * marks the point of attachment. NH(β-GlcNAc) = CC(=O)N[C@@H]1[C@@H](O)[C@H](O)[C@@H](CO)O[C@H]1N*; Dap = NC[C@H](N)C(=O)O

Legend:
NK-2 receptor [1] = target: T1, NK-2 receptor (Homo sapiens, UniProt P21452); assay: NK-2 receptor inhibition (selectivity panel); assay type: binding
T1 sequence (P21452 1-398): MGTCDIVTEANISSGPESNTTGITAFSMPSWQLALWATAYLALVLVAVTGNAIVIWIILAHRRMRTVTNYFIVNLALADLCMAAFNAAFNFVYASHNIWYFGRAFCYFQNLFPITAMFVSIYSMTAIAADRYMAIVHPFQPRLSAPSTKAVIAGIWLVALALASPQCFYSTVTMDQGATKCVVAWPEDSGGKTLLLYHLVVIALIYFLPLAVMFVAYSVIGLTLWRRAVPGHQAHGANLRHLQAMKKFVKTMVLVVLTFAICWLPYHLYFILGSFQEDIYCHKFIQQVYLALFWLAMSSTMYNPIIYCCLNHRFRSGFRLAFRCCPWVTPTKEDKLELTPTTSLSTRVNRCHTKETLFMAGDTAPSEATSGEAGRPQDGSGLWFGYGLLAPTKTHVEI
Description: (§1) In addition, tradipitant is evaluated in a panel of 74 other receptors, enzymes, and ion channels.

brain NK-1 receptors = assay: Occupancy of brain NK-1 receptors with tracer GR205171; assay type: in vivo; details: p.o., tracer GR205171 iv
Description: A tracer NK-1 antagonist compound (GR205171) is used to evaluate the ability of other NK-1 antagonists to occupy the brain NK-1 receptors. In these studies, the test compounds are administered orally and the tracer compound administered intravenously afterward. The occupancy of the NK-1 receptors is evaluated by quantitating the amount of the tracer compound bound to the brain NK-1 receptors after increasing doses of the test compounds.

NK-1 receptor [2] = target: T2, NK-1 receptor (Cavia porcellus, UniProt P30547); assay: GR73632-induced vocalization in guinea pigs; assay type: in vivo, guinea pig
T2 construct: from tissue; host or cells: living guinea pig, brain (icv agonist)
Description: When introduced into the brain, the NK-1 receptor agonist, substance P (SP) elicits distress vocalizations in the guinea pig that can be inhibited by NK-1 antagonists (Kramer et al. 1998; Rupniak et al. 2000).
Male Dunkin/Hartley guinea pigs (200 to 250 grams) are orally administered either vehicle or an NK-1 antagonist. Approximately 45 minutes later (for dose response studies), the animals are anesthetized and 0.1 nmol of GR73632 (SP analog) in a vehicle volume of 5 μl is injected into the cerebral ventricle at the intersection of bregma and the midline of the skull. Animals are placed in a dark testing chamber located inside of a sound attenuation cubicle and vocalizations are recorded for 30 minutes following recovery from anesthesia. The time spent vocalizing is quantified for each animal. In the duration of action study (FIG. 5), 0.1 mg/kg of tradipitant or vehicle solution is administered orally and then 2, 4, or 7 hours later, 0.1 nmol of GR73632 is administered into the cerebral ventricle as described above. Vocalizations are recorded and quantified as indicated above. Vehicle solutions are either CMC (FIG. 4 data) or a 10% ethanol/emulphor, 10% propylene glycol solution (FIGS. 5 and 6). Data is analyzed using one-tailed t-tests.

[3] = test system: panel of 74 other receptors, enzymes, and ion channels; assay: Selectivity panel of 74 other receptors, enzymes and ion channels; assay type: binding
Description: By 3 different measures, tradipitant is also a potent centrally active NK-1 antagonist in vivo.
as §1

NK-1 receptor [4] = target: T3, NK-1 receptor (Meriones unguiculatus, UniProt Q5DUB1); assay: NK-1 agonist (GR73632, icv)-induced foot-tapping behavior in gerbils; assay type: in vivo, Mongolian gerbil
T3 construct: from tissue; host or cells: living gerbil, brain (icv agonist)
Description: Male Mongolian gerbils (Harlan Sprague Dawley, Indianapolis, IN) weighing 26 to 40 grams are administered the selective neurokinin-1 receptor agonist GR73632 (3 pmol) via direct, vertical, free-hand intracerebroventricular (icy) injection to a depth of 4.5 mm below bregma with a cuffed 27-gauge needle attached to a 50 μl Hamilton syringe. Immediately after injection, animals are placed individually into isolated chambers with pressure-sensitive velocimeter platform floors (San Diego Instruments acoustic startle apparatus) that detect and quantify vibration. The San Diego Instruments “SR” DOS-based computer program is used on a PC to record the number of foot-taps over the following 6 to 10 minutes, beginning 30 seconds after the floor was lightly tapped. Raw data is converted with a Microsoft Excel macro that determines the number of events over threshold (125) in each 250-millisecond time bin over the 5.5 minutes following onset of observation. The total number and average intensity of events over the duration is determined. Total number of taps is analyzed with one-way ANOVA and post-hoc Dunnett's test using JMP statistical software.
A dose-response curve (with doses of 0.3, 1, 3 and 10 pmols, icy) is initially generated with the NK-1 agonist GR73632. […] The 3 pmol dose is subsequently chosen as the dose of choice for antagonism experiments.
NK-1 antagonists are tested for their ability to attenuate GR73632-induced foot tapping. NK-1 antagonists are administered (po) via oral feeding tube at doses and time points specified in each experiment. All animals receive only one dose of NK-1 antagonists in all tests.
NK-1 antagonists are administered at multiple doses (at least 3; one dose per animal) and response to GR73632 is measured.
Tradipitant is dissolved in 1% CMC/0.5% SLS/0.085% PVP vehicle.

nausea in gastroparesis = assay: Phase II study in patients with gastroparesis, open label extension; assay type: in vivo, human; details: 85 mg bid
Text: In a phase II study of tradipitant in patients with gastroparesis, participants initially enter 4 week screening period prior to treatment with tradipitant, during which they answer a daily symptom questionnaire rating their nausea severity on a scale of […] 0 represents no nausea, 1 represents very mild nausea, 2 represents mild nausea, 3 represents moderate nausea, 4 represents severe nausea, and 5 represents very severe nausea. After the 4 week screening period, patients enter the double blind randomized portion of the study, in which they receive either tradipitant 85 mg bid, or placebo. After 4 weeks of blinded study drug treatment, patients have the opportunity to enter an additional 8 week open label extension, during which each subject receives tradipitant 85 mg bid. 64 subjects participate in at least one week of the open label tradipitant dosing portion of the study. The average daily diarized nausea scores are reported for subjects during the 4 week screening period and during the up to 8 week open label extension.

NK-3 receptor = target: T4, NK-3 receptor (Homo sapiens, UniProt P29371); assay: NK-3 receptor inhibition (selectivity panel); assay type: binding
T4 sequence (P29371 1-465): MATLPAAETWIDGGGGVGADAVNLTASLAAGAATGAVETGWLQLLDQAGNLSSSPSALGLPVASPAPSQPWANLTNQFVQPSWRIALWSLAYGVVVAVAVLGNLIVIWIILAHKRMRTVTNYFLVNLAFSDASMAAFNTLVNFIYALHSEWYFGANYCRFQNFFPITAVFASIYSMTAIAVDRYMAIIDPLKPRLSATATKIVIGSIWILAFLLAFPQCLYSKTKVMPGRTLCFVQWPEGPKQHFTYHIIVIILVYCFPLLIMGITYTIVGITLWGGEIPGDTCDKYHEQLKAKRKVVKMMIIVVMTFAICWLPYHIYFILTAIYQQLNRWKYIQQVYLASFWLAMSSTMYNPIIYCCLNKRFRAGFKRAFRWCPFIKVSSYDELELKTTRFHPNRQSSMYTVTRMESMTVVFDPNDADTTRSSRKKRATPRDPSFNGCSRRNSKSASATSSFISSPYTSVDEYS
Description: as §1

NK-2 receptor [5] = target: T1, NK-2 receptor; details: in vivo; cited from earlier work
NK-1 = target: T5, NK-1 (Homo sapiens, UniProt P25103); details: patients with IBS, double-blind study; cited from earlier work
T5 construct: host or cells: patients with IBS
T5 sequence (P25103 whole entry): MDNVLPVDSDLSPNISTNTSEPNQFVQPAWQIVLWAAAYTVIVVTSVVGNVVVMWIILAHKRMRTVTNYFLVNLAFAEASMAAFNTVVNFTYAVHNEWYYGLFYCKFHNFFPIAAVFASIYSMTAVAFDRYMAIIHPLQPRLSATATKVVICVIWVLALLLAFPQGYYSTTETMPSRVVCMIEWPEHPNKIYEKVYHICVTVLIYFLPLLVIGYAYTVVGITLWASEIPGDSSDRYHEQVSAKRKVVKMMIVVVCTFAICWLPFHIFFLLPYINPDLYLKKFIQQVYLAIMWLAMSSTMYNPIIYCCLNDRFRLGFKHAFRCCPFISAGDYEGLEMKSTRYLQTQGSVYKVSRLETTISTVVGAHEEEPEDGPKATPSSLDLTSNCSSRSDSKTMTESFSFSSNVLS

T3 sequence (Q5DUB1 whole entry): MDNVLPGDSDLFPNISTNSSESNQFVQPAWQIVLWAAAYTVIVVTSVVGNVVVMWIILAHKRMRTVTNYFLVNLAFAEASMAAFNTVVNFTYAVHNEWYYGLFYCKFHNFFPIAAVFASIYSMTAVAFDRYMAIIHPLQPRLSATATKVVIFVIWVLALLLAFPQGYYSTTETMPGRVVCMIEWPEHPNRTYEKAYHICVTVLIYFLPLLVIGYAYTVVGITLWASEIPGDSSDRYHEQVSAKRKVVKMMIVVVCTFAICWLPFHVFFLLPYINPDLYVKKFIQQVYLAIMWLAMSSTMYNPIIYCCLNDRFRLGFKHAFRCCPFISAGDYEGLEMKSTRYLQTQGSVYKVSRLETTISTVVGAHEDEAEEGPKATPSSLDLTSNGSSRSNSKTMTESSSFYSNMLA
T2 sequence (P30547 whole entry): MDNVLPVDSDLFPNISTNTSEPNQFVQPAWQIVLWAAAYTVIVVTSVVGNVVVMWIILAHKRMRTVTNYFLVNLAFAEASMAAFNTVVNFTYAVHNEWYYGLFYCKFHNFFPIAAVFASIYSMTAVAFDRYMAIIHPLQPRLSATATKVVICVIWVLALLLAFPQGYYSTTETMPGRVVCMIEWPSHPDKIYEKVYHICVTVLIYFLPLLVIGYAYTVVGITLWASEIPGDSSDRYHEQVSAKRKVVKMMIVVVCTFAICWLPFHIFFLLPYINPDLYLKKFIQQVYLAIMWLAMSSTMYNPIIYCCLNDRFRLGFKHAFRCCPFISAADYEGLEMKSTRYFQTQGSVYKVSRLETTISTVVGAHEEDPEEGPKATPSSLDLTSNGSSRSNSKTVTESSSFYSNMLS

inhibition at the NK-2 receptor (NK-2 receptor [1]): no significant inhibition
inhibition of vocalization at low doses (NK-1 receptor [2]; at and below 0.1 mg/kg, 0.05 and 0.025 mg/kg, p<0.001): retains significant inhibitory activity
suppression of agonist-induced vocalization, duration of activity study (NK-1 receptor [2]; single dose 0.1 mg/kg oral, 7 hours after administration): significantly active
activity in panel of 74 additional receptors, enzymes, and ion channels including NK-2 and NK-3 [3]: no significant activity
inhibition of binding ([3]; test concentration 1 μM, 74 targets): ≤ 50%
time after administration up to which foot-tapping is significantly inhibited (NK-1 receptor [4]; 0.1 mg/kg po): up to 7 hours
time after administration up to which foot-tapping is significantly reversed (NK-1 receptor [4]; 1 mg/kg): up to 16 hours
inhibition at the NK-3 receptor (NK-3 receptor): no significant inhibition
Structure (SMILES): O=C(c1ccccc1Cl)c1cccnc1-c1nnn(Cc2cc(C(F)(F)F)cc(C(F)(F)F)c2)c1-c1ccncc1 [tradipitant, {2-[1-(3,5-bistrifluoromethylbenzyl)-5-pyridin-4-yl-1H-[1,2,3]triazol-4-yl]-pyridin-3-yl}-(2-chlorophenyl)-methanone]
estimated ED50, brain NK-1 receptor occupancy (brain NK-1 receptors): 0.04 mg/kg
change of average daily nausea score compared to pre-treatment (nausea in gastroparesis): reduced by approximately one half
change of average percentage of nausea-free days compared to pre-treatment (nausea in gastroparesis): doubled or greater

Structure (SMILES): CC(=O)N[C@@H]1[C@@H](O)[C@H](O)[C@@H](CO)O[C@H]1NC(=O)C[C@@H]1NC(=O)[C@H](CC(C)C)NC(=O)[C@@H]2CNC(=O)C[C@H](NC1=O)C(=O)N[C@@H](Cc1c[nH]c3ccccc13)C(=O)N[C@@H](Cc1ccccc1)C(=O)N2 [nepadutant] (cyclo(D(NH(β-GlcNAc))DWF[Dap]L); lactam 2-5)
basal gastrointestinal motility (NK-2 receptor [5]): without affecting
motility-stimulating effect of neurokinin A (NK-2 receptor [5]): effectively antagonized

Structure (SMILES): COc1ccc(C(C)C)cc1CN[C@H]1C2CCN(CC2)[C@H]1C(c1ccccc1)c1ccccc1 [CJ-11,974]
discomfort associated with rectosigmoidal distension (NK-1): alleviated the discomfort

time after administration up to which foot-tapping is significantly inhibited (NK-1 receptor [4]; 1.2 mg/kg po): up to 24 hours
ED50, inhibition of foot-tapping behavior (NK-1 receptor [4]; po, GR 73632 3 pmol icv, gerbil): 0.4 ± 0.05 mg/kg
Structure (SMILES): C[C@@H](O[C@H]1OCCN(Cc2n[nH]c(=O)[nH]2)[C@H]1c1ccc(F)cc1)c1cc(C(F)(F)F)cc(C(F)(F)F)c1 [MK-869]
